This assay has as its target T1, full length AKT1 (Homo sapiens, UniProt P31749).
T1 construct: Full-length human AKT1 gene was amplified by PCR; His6 tag from the pFastBacHTb vector (own knowledge: N-terminal His6, spacer and TEV site; supported by the nickel purification) (N); made in house; host or cells: baculovirus-infected insect cells (virus produced in Sf9; T. ni cells infected; purification text says sf9 cells)
In words: Full-length AKT enzyme assay (substrate phosphorylation, SPA). It counts as biochemical. The settings on record: in at least one experimental run; 10 nM activated AKT enzyme, 4 uM ATP; pIC50 = -log(IC50), IC50 in molar units; read-out: pIC50 value against full length AKT1 (converted). From the text:
Cloning of Full-Length Human (FL) AKT1:
Full-length human AKT1 gene was amplified by PCR from a plasmid containing myristylated-AKT1-ER (gift from Robert T. Abraham, Duke University under MTA, described in Klippel et al. in Molecular and Cellular Biology 1998 Volume 18 p. 5699) using the 5′ primer: SEQ. ID NO: 2 5′ […] 3′ and the 3′ primer: SEQ. ID NO: 3 […] 3′. The 5′ primer included a BamHI site and the 3′ primer included an XhoI site for cloning purposes. The resultant PCR product was subcloned in pcDNA3 as a BamHI/XhoI fragment. A mutation in the sequence (TGC) coding for a Cysteine^25 was converted to the wild-type AKT1 sequence (CGC) coding for an Arginine^25 by site-directed mutagenesis using the QuikChange® Site Directed Mutagenesis Kit (Stratagene). The AKT1 mutagenic primer: SEQ. ID NO: 4 5′ […] and selection primer: SEQ. […] For expression/purification purposes, AKT1 was isolated as a BamHI/XhoI fragment and cloned into the BamHI/XhoI sites of pFastbacHTb (Invitrogen).
Expression of FL Human AKT1:
Expression was done using the BAC-to-BAC Baculovirus Expression System from Invitrogen (catalog #10359-016). […]
Compounds of the present invention were tested for AKT 1, 2, and 3 protein serine kinase inhibitory activity in substrate phosphorylation assays. […] Substrate phosphorylation was detected by the following procedure. […]

Where “and” joins values, the source holds several entries; their conditions need not be identical. Identical values can stand only once. Where only a bound is given, the exact number is not on record here.

T1 sequence (P31749 whole entry): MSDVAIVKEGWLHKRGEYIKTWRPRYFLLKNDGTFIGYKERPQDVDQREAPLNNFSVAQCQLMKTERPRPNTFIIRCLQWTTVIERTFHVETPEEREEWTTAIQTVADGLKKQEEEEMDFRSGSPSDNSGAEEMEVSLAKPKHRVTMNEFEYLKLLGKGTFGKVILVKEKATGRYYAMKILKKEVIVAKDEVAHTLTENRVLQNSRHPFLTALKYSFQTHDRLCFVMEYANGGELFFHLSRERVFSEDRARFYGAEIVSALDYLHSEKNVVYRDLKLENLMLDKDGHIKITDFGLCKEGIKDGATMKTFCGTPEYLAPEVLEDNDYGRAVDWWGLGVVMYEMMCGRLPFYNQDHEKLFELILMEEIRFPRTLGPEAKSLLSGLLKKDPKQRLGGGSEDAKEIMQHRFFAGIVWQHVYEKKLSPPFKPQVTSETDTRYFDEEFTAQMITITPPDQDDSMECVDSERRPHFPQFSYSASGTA

`Cn1nccc1-c1csc(C(=O)N[C@H](CN)Cc2cccc(F)c2)n1` [Example 1, N-{(1S)-2-amino-1-[(3-fluorophenyl)methyl]ethyl}-4-(1-methyl-1H-pyrazol-5-yl)-1,3-thiazole-2-carboxamide]: the IC50 is ≤ 501 nM and 501 nM.

Regarding `Cn1nccc1-c1csc(C(=O)NC(CN)Cc2ccccc2)n1` (centres unmarked) [Example 3, N-[2-amino-1-(phenylmethyl)ethyl]-4-(1-methyl-1H-pyrazol-5-yl)-1,3-thiazole-2-carboxamide], the IC50 was at most 501 nM.

These data come from US20110160256A1, “INHIBITORS OF AKT ACTIVITY” (priority 2008, published 2011).
